Ka and stoichiometry N data for six compounds are collected here from article PMC5889867, “Inhibition of Protein Aggregation by Several Antioxidants” (Oxidative Medicine and Cellular Longevity, 2018).

Where “and” joins values, the source holds several entries; their conditions need not be identical. Equal values may be shown once.

One assay concerns the target T1, human stefin B (stB wt) (Homo sapiens, UniProt P04080, C3S).
T1 construct: gene CSTB; Cys3 replaced by Ser
T1 sequence (P04080 1-98 C3S): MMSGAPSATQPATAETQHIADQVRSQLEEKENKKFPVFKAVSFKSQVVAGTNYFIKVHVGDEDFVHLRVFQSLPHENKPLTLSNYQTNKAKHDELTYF
Put plainly: intrinsic Tyr fluorescence quenching, modified Stern-Volmer. The following applies: 34 uM protein, 25 C, excitation 277 nm. The format is binding.

The target in assay [1] is human stefin B (stB wt), recombinant, Cys 3 replaced with Ser (human) (UniProt P04080). Put plainly: cross-linking; stB wt fibrillation mixture (34 uM protein, 0.015 M acetate buffer, 0.15 M NaCl, pH 4.8, 10% v/v TFE, room temperature) aged 24 hours, with or without antioxidants (NAC, vit C and others); cross-linked with 50-fold molar excess of BS3, then SDS-PAGE.

Consider `O=C1O[C@H]([C@@H](O)CO)C(O)=C1O` [vitamin C, (2R)-2-[(1S)-1,2-dihydroxyethyl]-3,4-dihydroxy-2H-furan-5-one], for which the Ka result at human stefin B (stB wt) is recorded as “each compound also acts as a quencher of tyrosine fluorescence”.

`CC(=O)N[C@@H](CS)C(=O)O` [NAC, (2R)-2-acetamido-3-sulfanyl propanoic acid]: at human stefin B (stB wt), the Ka result was “each compound also acts as a quencher of tyrosine fluorescence”.

In the case of `Oc1ccc(/C=C/c2cc(O)cc(O)c2)cc1` [resveratrol, 3,5,40-trihydroxystilbene], the Ka entry at human stefin B (stB wt) was “each compound also acts as a quencher of tyrosine fluorescence”.

Consider `O=c1c(O)c(-c2ccc(O)c(O)c2)oc2cc(O)cc(O)c12` [quercetin, 2-(3,4-dihydroxyphenyl)-3,5,7-trihydroxy-4H-chromen-4-one], for which the Ka entry on human stefin B (stB wt) is given as “each compound also acts as a quencher of tyrosine fluorescence”.

For “human stefin B (stB wt), recombinant, Cys 3 replaced with Ser (from UniProt P04080 8-98) (natural protein)”, the stoichiometry N in assay [1] is 2 and > 4.

For the compound `COc1cc(/C=C/C(=O)CC(=O)/C=C/c2ccc(O)c(OC)c2)ccc1O` [curcumin, (1E,6E)-1,7-bis(4-hydroxy-3-methoxyphenyl)hepta-1,6-diene-3,5-dione], the Ka result at human stefin B (stB wt) was “binding constants show that curcumin binds more tightly than do other antioxidants studied here”.

Broadly, the stoichiometry N is a count of units in the complex or per binding partner.
